{"source": "ChEMBL document CHEMBL1201862", "about": "“PubChem BioAssay data set” (2004)", "key": {"[1]": {"molecular_target": "T1, Scavenger receptor class B member 1 (Mus musculus, UniProt Q61009)", "T1 sequence (Q61009 whole entry)": "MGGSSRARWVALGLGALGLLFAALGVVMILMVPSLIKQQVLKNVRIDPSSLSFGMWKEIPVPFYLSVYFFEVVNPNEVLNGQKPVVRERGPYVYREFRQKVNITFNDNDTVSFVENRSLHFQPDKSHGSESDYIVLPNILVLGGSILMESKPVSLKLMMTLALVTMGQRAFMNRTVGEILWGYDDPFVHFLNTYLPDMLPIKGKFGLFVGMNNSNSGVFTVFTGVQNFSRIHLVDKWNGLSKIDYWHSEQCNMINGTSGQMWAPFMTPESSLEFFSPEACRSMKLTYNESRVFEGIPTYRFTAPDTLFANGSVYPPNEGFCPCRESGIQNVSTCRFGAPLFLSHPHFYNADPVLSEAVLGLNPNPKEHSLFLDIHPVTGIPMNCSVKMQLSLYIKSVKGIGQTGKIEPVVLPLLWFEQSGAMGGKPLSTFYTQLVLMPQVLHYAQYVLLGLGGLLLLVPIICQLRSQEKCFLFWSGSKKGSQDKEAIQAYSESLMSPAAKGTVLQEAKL", "assay": "mouse SR-BI DiI-HDL transfer blockers – ldlA[mSR-BI] CHO cells, fluorescence plate reader, dry powder, set 9, dose response (AID 623880)", "assay_type": "functional, cell-based"}, "[2]": {"molecular_target": "T1, Scavenger receptor class B member 1", "assay": "blockers of DiI-HDL lipid transfer via SR-BI – cell-based, ldlA[mSR-BI] CHO, DiI fluorescence, dry powder, set 10, dose response (AID 624029)", "assay_type": "functional"}, "[3]": {"molecular_target": "NAD-dependent protein deacylase sirtuin-5, mitochondrial (Homo sapiens, UniProt Q9NXA8)", "sequence (Q9NXA8 whole entry)": "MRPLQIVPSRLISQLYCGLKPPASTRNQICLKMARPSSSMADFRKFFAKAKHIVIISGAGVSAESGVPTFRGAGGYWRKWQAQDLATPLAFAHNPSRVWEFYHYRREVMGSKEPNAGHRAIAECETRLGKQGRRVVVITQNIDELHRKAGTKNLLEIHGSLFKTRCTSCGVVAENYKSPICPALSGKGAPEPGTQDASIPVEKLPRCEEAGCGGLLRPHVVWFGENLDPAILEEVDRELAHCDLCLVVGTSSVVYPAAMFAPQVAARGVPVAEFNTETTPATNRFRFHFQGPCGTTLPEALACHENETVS", "assay": "blockers of sirtuin-5 peptide desuccinylation – biochemical, fluorescence imaging, cherry-pick, set 6, dose response (AID 720597)"}, "[4]": {"assay": "Cytotoxicity screening for potential Inhibitors of Bacterial Capsule Biogenesis (4).", "assay_type": "functional"}, "[5]": {"assay": "microbe, parasite or virus in culture", "assay_type": "functional", "conditions": "Mycobacterium tuberculosis"}, "[6]": {"molecular_target": "COUP transcription factor 2 (Homo sapiens, UniProt P24468)", "sequence (P24468 whole entry)": "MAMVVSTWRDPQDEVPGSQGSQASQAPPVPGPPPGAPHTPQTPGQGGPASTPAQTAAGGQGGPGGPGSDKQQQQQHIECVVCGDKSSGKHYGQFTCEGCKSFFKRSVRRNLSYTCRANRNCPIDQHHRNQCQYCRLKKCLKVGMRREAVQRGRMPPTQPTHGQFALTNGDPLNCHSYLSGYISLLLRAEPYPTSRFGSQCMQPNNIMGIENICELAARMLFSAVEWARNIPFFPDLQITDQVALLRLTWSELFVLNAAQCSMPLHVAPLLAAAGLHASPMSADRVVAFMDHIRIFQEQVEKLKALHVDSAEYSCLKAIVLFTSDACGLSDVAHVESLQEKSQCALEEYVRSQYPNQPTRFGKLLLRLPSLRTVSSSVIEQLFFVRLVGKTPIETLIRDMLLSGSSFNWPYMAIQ", "assay": "Luminescence-based cell-based high throughput dose response assay to identify inhibitors of COUP-TFII (NR2F2).", "assay_type": "functional"}, "[7]": {"assay": "blockers of HIV-1 envelope-mediated cell-cell fusion – cherry-pick, dose response (AID 652057)", "assay_type": "functional, cell-based"}, "[8]": {"assay": "cells", "conditions": "HEK293"}, "[9]": {"assay": "cells", "conditions": "A549"}, "[10]": {"assay": "cell viability loss, ATP luminescence – CellTiter-Glo, 24 h, powder samples, set 7, cytotoxicity control for SR-BI HDL uptake inhibitor project, dose response (AID 624026)", "assay_type": "functional, cell-based"}, "[11]": {"assay": "cells", "assay_type": "functional, cell-based"}, "[12]": {"molecular_target": "T2, Nuclear receptor subfamily 0 group B member 1 (Homo sapiens, UniProt P51843)", "T2 sequence (P51843 whole entry)": "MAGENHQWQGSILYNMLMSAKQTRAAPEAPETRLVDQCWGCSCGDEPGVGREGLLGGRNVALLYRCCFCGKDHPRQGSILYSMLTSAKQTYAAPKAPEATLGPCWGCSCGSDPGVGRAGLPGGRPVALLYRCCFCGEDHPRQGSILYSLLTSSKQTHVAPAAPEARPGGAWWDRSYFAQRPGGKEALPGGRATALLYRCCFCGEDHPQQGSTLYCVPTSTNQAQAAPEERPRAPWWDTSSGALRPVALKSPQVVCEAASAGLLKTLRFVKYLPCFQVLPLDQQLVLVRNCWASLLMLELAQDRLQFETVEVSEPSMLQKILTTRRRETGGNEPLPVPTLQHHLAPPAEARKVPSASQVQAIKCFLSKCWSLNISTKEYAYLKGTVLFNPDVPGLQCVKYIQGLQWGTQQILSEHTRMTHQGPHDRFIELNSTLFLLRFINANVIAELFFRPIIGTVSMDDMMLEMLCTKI", "assay_type": "functional, cell-based"}, "[13]": {"assay": "cells", "assay_type": "functional, cell-based", "conditions": "HEK-CNG"}, "[14]": {"molecular_target": "Galanin receptor type 3 (Homo sapiens, UniProt O60755)", "sequence (O60755 whole entry)": "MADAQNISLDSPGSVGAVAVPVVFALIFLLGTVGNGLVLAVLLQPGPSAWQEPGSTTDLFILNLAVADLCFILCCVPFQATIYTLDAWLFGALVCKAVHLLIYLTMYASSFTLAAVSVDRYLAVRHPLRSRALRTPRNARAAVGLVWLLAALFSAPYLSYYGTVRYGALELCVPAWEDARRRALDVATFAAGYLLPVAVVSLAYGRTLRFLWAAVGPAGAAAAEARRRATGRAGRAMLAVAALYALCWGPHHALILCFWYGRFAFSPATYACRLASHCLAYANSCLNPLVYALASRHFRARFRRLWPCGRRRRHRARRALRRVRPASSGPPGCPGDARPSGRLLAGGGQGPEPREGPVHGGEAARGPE", "assay": "Fluorescence-based cell-based primary high throughput dose response assay to identify antagonists of the Galanin Receptor 3 (GalR3).", "assay_type": "functional"}, "[15]": {"assay": "viability loss in MITF-independent A375 cells – cell-based, CellTiter-Glo luminescence, dry powder, set 2, counter-screen for MITF inhibitor project, dose response (AID 624489);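 also: actives are compounds lowering A375 viability meaning general cytotoxicity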", "assay_type": "functional", "conditions": "A-375"}, "[16]": {"assay": "cytotoxicity in MITF-independent A375 cells – cell-based, CellTiter-Glo luminescence, dry powder, set 4, counter-screen for MITF inhibitor project, dose response (AID 624364);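 also: A375 melanoma cells are MITF independent so this is a counter screen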", "assay_type": "functional", "conditions": "A-375"}, "[17]": {"molecular_target": "Metabotropic glutamate receptor 3 (Rattus norvegicus, UniProt P31422)", "sequence (P31422 whole entry)": "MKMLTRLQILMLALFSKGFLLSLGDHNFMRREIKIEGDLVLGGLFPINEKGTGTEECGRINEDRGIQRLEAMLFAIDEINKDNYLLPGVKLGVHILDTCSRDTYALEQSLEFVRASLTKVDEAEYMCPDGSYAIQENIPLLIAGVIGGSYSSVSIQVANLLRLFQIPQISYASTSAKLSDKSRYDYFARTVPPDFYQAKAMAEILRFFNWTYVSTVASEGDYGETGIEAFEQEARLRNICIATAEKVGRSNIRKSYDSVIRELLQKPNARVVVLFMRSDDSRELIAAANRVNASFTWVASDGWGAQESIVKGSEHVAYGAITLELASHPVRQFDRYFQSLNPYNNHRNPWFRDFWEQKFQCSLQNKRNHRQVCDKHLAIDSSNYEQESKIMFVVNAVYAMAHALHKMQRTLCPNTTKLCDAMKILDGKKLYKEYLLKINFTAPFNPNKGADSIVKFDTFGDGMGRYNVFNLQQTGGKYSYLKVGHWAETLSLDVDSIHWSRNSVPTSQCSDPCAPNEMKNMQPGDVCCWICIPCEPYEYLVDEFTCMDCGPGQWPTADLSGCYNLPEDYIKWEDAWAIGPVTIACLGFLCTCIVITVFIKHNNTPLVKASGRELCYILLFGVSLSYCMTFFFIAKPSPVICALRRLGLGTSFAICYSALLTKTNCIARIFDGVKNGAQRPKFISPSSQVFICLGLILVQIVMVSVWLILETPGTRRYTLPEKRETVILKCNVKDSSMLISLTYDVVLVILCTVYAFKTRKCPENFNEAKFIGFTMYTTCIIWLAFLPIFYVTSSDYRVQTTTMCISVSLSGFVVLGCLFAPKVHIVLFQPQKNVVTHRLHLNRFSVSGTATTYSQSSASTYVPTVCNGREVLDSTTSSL", "assay": "inhibition of rat mGlu3 glutamate signaling – HEK/GIRK cells, thallium flux, dose response (AID 651839)", "assay_type": "functional"}}, "note": "Calls of active or inactive are those of the source.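 For EC50 in this document: target is galanin receptor GalR3 read with a cAMP biosensor in HEK293 cells.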", "data": [{"smiles": "COc1c(NC(=O)C(=O)c2ccc(OCCN3CCOCC3)c3ccccc23)cc(C(C)(C)C)cc1NS(C)(=O)=O", "note": "[ITX-5061 FREE BASE]", "values": [{"measurement": "AC50", "setting": "[1]", "value": "0.0114 µM (active)"}, {"measurement": "AC50", "setting": "[2]", "value": "0.146 µM (active)"}]}, {"smiles": "C[C@@H]1CN([C@H](C)CO)S(=O)(=O)c2ccc(/C=C/c3ccccc3)cc2O[C@H]1CN(C)C(=O)Nc1cc(F)ccc1F", "values": [{"measurement": "AC50", "setting": "[3]", "value": "> 30 µM (inactive)"}]}, {"smiles": "COc1cc(NC(=O)c2ccc3nc(N)sc3c2)ccn1", "values": [{"measurement": "CC50", "setting": "[4]", "value": "172 µM (active)"}]}, {"smiles": "C/C(=N\\NC(N)=S)C1C2C3CC4C5CC(C42)C1C53", "note": "(stereo not drawn)", "values": [{"measurement": "CC50", "setting": "[5]", "value": "> 40 µM (active)"}, {"measurement": "IC50", "setting": "[6]", "value": "6.4 µM (active)"}]}, {"smiles": "C=CCN1C(=S)CC(c2ccccc2)=Nc2ccccc21", "values": [{"measurement": "AC50", "setting": "[7]", "value": "47.9 µM (active)"}, {"measurement": "AC50", "setting": "[8]", "value": "> 52 µM (inactive)"}, {"measurement": "AC50", "setting": "[9]", "value": "> 52 µM (inactive)"}]}, {"smiles": "CC(C)NC(=O)Nc1ccc2c(c1)C(=O)N([C@@H](C)CO)C[C@H](C)[C@@H](CN(C)S(=O)(=O)c1ccc(Cl)cc1)O2", "values": [{"measurement": "AC50", "setting": "[2]", "value": "> 70 µM (inactive)"}, {"measurement": "AC50", "setting": "[10]", "value": "> 70 µM (inactive)"}]}, {"smiles": "Cc1ccc(NC(=O)c2ccc3snnc3c2)cc1C", "values": [{"measurement": "IC50", "setting": "[11]", "value": "> 67.6 µM (inactive)"}, {"measurement": "IC50", "setting": "[12]", "value": "> 67.6 µM (inactive)"}]}, {"smiles": "COc1cccc2[nH]c3c(N4CCCC(C)C4)ncnc3c12", "note": "(stereo not drawn)", "values": [{"measurement": "EC50", "setting": "[13]", "value": "> 29.9 µM (inactive)"}, {"measurement": "IC50", "setting": "[14]", "value": "0.4 µM (active)"}]}, {"smiles": "Cc1ccc(C(=O)NC2=C(c3ccc(OC(F)(F)F)cc3)C(=O)c3ccccc3C2=O)o1", "values": [{"measurement": "AC50", "setting": "[15]", "value": "21.3 µM (active)"}, {"measurement": "AC50", "setting": "[16]", "value": "33.4 µM (active)"}]}, {"smiles": "COc1ccc(C#Cc2ccc(C(=O)N3CCC(CO)C3)cc2)c(F)c1", "note": "(stereo not drawn)", "values": [{"measurement": "IC50", "setting": "[17]", "value": "6.85 µM (active)"}]}]}
